US8790889B2, “Neuronal stimulation” (The University of Queensland, priority 2009, dated 2014)
“Also recorded” adds a separate entry of the source. Structures can show the parent of a compound that is named as a salt.

Experiments:
[1] = test system: adult hippocampal precursors; test: Adult hippocampal neurosphere culture; format: cell-based, mouse; conditions: for effect of antagonist on norepinephrine-stimulated increase in neurosphere numbers: in presence of norepinephrine, prazosin 100 nM, propranolol 1 μM, CGP20712 10 nM, SR59230A 10 nM; for effect of antagonist on norepinephrine-stimulated increase in neurosphere numbers / increase in neurosphere numbers compared to the control: yohimbine 1 μM, ICI118,551 10 nM; for neurosphere numbers with antagonist alone / increase in neurosphere numbers compared to the control: no norepinephrine, antagonist alone
Experimental: Animals were treated in accordance with the Australian Code of Practice for the Care and Use of Animals for Scientific Purposes and ethics approval was obtained for all experiments from the Animal Ethics Committee of the University of Queensland. 8-10 week old male C57/B16 mice were killed by cervical dislocation and their brains removed. Brains were bisected along the midline in the sagittal plane. The hippocampi were isolated from the overlying cortex and minced using a scalpel blade. Minced tissue was digested in 0.1% papain (Invitrogen, Melbourne, Australia) for 20 minutes at 37° C., after which an excess of NeuroCult NSC basal medium (Stem Cell Technologies, Vancouver, Canada) was added to halt the digestion. Tissue was then centrifuged at 100 rcf for 5 minutes, the resulting pellet was resuspended in 1 ml of complete neurosphere medium, and a single cell suspension was achieved by gentle trituration. The cells were filtered through a 40 μm cell sieve (BD Biosciences, Sydney, Australia) and resuspended in NeuroCult NSC basal medium containing NeuroCult proliferation supplements (Stem Cell Technologies), 2% bovine serum albumin (Invitrogen) and 2 μg/ml heparin (Sigma-Aldrich, Sydney, Australia). The growth factors added were 20 ng/ml EGF (receptor grade, BD Biosciences) and 10 ng/ml bFGF (recombinant bovine, Roche, Basel, Switzerland). The cells were then plated in a 96-well plate and cultured in complete neurosphere medium containing EGF and bFGF, in the presence or absence of 5-hydroxytryptamine hydrochloride (serotonin; 100 nM, 1 μM, 10 μM), L-(−)-noradrenaline (+)-bitartrate salt monohydrate (norepinephrine; 100 nM, 1 μM, 10 μM) or KCl (15 mM). The adrenergic receptor antagonists used were prazosin (100 nM), yohimbine (1 μM), propranolol (1 μM), CGP20712 (10 nM), ICI118,551 (10 nM) and SR59230A (10 nM). BRL37344 was used as a selective β3 adrenergic receptor agonist. All the compounds were purchased from Sigma-Aldrich. The number of primary neurospheres was counted on day 10-13 and expressed as a percentage relative to the control.

[2] = test system: stem cells in the hippocampus; test: i.p. treatment for 7 days, hippocampal neurospheres; format: in vivo, mouse; conditions: 10 mg/kg i.p. for 7 days
Experimental: (§1) Neurospheres with a diameter greater than […] may be derived from BRL37344 treated mice.

hippocampal precursors [3] = test: Intrahippocampal infusion for 7 days, hippocampal neurospheres; format: in vivo, mouse; conditions: 10 μM intrahippocampal infusion for 7 days
Experimental: as §1

hippocampal precursors [4] = test: Slice-sphere assay (hippocampal organotypic slices, then neurosphere culture); format: cell-based, rat; conditions: for neurosphere frequency: FIG. 8b, 1 μM; for effect on precursor numbers / frequency of neurosphere generation: 1 μM or 10 μM
Experimental: D-glucose (Sigma-Aldrich) was added to the medium to a final concentration of 5 mM. Four filters, each containing 6-7 hippocampal slices, were generated from a single animal. Plates were incubated at 37° C. in a humidified 5% CO2 incubator and the slices were cultured for 6 days. To assess the influence of specific compounds on hippocampal precursor proliferation in the slice culture, compounds were added to the complete medium at the doses described below. Two filters were treated with the compounds for each dose per experiment. On every alternate day half the medium was removed and replaced with fresh medium containing the compounds. Slices were treated with serotonin at 10 μM and 100 μM and norepinephrine at 1 μM, 10 μM and 100 μM. […] Propranolol (10 μM) was used to block β adrenergic receptors in the slices. On the 6th day of culture, the hippocampal slices from each treatment group were pooled and the tissue was minced using a scalpel blade. Minced tissue was then treated with 0.1% trypsin-EDTA (Invitrogen) for 5 minutes at 37° C. […] A single cell suspension was achieved by gentle trituration. The total number of viable cells in an aliquot was counted on a haemocytometer based on the exclusion of 0.08% trypan blue (Sigma-Aldrich). The cells were then cultured in complete neurosphere medium containing EGF and bFGF. […] For each experiment there were 20 wells plated for each of the doses per treatment group. The plates were incubated at 37° C. in a humidified 5% CO2 incubator.

Hes5-GFP-positive cells = test: Neurosphere generation from FACS-sorted Hes5-GFP-positive cells; format: cell-based, mouse
Experimental: Brains from 8-12 weeks old male Hes5-GFP mice were removed and hippocampi were isolated as described earlier. A live cell suspension was prepared from the hippocampus using 0.1% papain, and the dead cells were labelled with propidium iodide (1 μg/ml). GFP-positive and -negative cells were then purified by fluorescence-activated cell sorting (FACS). Cells were sorted on a FACS Vantage (Becton Dickinson, Melbourne, Australia) with DIVA software. The […] was set relative to the basal fluorescence levels obtained from GFP-negative wild-type littermate controls and a conservative approach was used in selecting only high GFP-expressing cells. The cells were collected in basal medium and plated into 96-well tissue culture plates in medium containing EGF+bFGF with or without norepinephrine (10 μM).

hippocampal neurospheres = test: Immunocytochemistry of neurospheres (multipotentiality); format: cell-based, mouse
Experimental: We next determined the multipotentiality of the cells present within the neurospheres generated in the presence and absence of norepinephrine (FIG. 2b, c, d).
Control or norepinephrine-stimulated neurospheres were plated onto poly-ornithine-coated cover slips or poly-D-lysine-coated BioCoat eight-well culture slides (BD Biosciences) in serum-free basal medium without any mitogens. The neurospheres were allowed to flatten and adhere for 4-6 days in a humidified, 5% CO2 incubator. They were then fixed with 4% paraformaldehyde in 0.1M phosphate buffered saline (PBS) at 4° C. for 40 min, and immunocytochemistry was performed as described previously 38 using antibodies to the neuronal marker βIII tubulin (1:2000; Promega, Madison, Wis.), the astrocytic marker GFAP (1:500; DakoCytomation, Carpinteria, Calif.) and the oligodendrocyte marker MBP (1:500; Millipore, Sydney, Australia). 4′,6′-diamidino-2-phenylindole (DAPI; 1:5000; Sigma-Aldrich) was used as a nuclear stain. Slides were mounted using fluoromount (DakoCytomation) and viewed on a Zeiss-Axio Imager microscope. Images were captured using a digital camera linked to a computer using Zeiss software.

[5] = test system: norepinephrine-stimulated large neurospheres; test: Hippocampal neurosphere passaging (self-renewal); format: cell-based, mouse; conditions: 10 μM; 15 out of 21
Source text: To ascertain whether the norepinephrine-stimulated large neurospheres indeed reflected the activation of stem cells, individual neurospheres were selected and subjected to long-term passaging to assess their self-renewal capacity.
As a first step primary, neurospheres were individually dissociated and replated into fresh media not containing norepinephrine. Primary neurospheres from the unstimulated hippocampus were also passaged as single spheres. Hippocampal neurosphere cultures were initiated by removing 150 μl of the medium from wells containing single neurospheres, treating with 100 μl 0.1% trypsin-EDTA for 2 minutes at room temperature, followed by washing with 100 μl trypsin inhibitor in HEM. The neurospheres were mechanically triturated until dissociated and replated in 24 well plates in 2 ml of complete medium. Neurospheres were passaged every 10 days by centrifuging the neurospheres, removing the medium and incubating in 1 ml of 0.1% trypsin-EDTA for 2 minutes at room temperature. After the addition of an equal volume of trypsin inhibitor, the neurospheres were centrifuged at 100 rcf for 5 minutes and the supernatant removed. Cells were mechanically triturated in 500 μl of complete medium and trypan blue staining was used to evaluate the number of cells, both viable and total number, on a haemocytometer. […]

## CC(Cc1ccc(OCC(=O)[O-])cc1)NCC(O)c1cccc(Cl)c1.[Na+] (stereo not shown) [BRL37344]
[1]; 1 μM and 10 μM, comparison 10 μM norepinephrine
  neurosphere numbers compared to norepinephrine treatment: increase in neurosphere numbers similar to that observed in the presence of 10 μM norepinephrine
[2]
  large neurospheres obtained: increase in, large neurospheres; also recorded: increase in large neurospheres
[2]; 8 weeks old C57/B16 mice, n=7
  activation of stem cells in the hippocampus: significant activation of stem cells in the hippocampus
Hippocampal precursors [3]
  activation of hippocampal precursors: activation of hippocampal precursors
  number of neurospheres with a diameter greater than 100 μM: much greater
  total number of neurospheres derived from treated mice: greater than when saline is infused

## Cn1cc(C(F)(F)F)nc1-c1ccc(OCC(O)CNCCOc2ccc(O)c(C(N)=O)c2)cc1 (stereo not shown) [CGP20712, 2-hydroxy-5-(2-[{2-hydroxy-3-(4-[1-methyl-4-trifluoromethyl-2-imidazolyl]phenoxy)-propyl}amino]ethoxy)benzamide]
[1]
  effect of antagonist on norepinephrine-stimulated increase in neurosphere numbers: no such effect

## Cc1ccc(OCC(O)C(C)NC(C)C)c2c1CCC2 (stereo not shown) [ICI118,551]
[1]
  neurosphere numbers with antagonist alone: significant increase
  increase in neurosphere numbers compared to the control: about 34%

## [Cl-].[K+] [KCl]
[1]; KCl 15 mM alone
  increase in neurosphere numbers: 2 fold

## CCc1ccccc1OC[C@@H](O)CN[C@H]1CCCc2ccccc21.O=C(O)C(=O)O [SR59230A, 3-(2-ethylphenoxy)-1([1s]-1,2,3,4-tetrahydronaphth-1-ylamino)-2S-propanol oxalate]
[1]
  effect of antagonist on norepinephrine-stimulated increase in neurosphere numbers: completely blocked; also recorded: completely inhibited

## CNCC[C@@H](Oc1ccccc1C)c1ccccc1 [atomoxetine]
Hippocampal precursors [4]
  neurosphere frequency: significant increase
Hippocampal precursors [4]; slices treated at 1 μM
  neurosphere frequency as percentage of the control: 147.0±15.0%

## CN(C)CCCC1(c2ccc(F)cc2)OCc2cc(C#N)ccc21 (stereo not shown) [citalopram]
Hippocampal precursors [4]; slices treated at 10 μM
  neurosphere frequency as percentage of the control: 113.8±9.9%
Hippocampal precursors [4]; slices treated at 100 μM
  neurosphere frequency as percentage of the control: 103.8±3.8%

## CNCCC(Oc1ccc(C(F)(F)F)cc1)c1ccccc1 (stereo not shown) [fluoxetine]
Hippocampal precursors [4]
  effect on precursor numbers / frequency of neurosphere generation: no significant change
Hippocampal precursors [4]; listed as Fluoxetine
  effect on precursor numbers / frequency of neurosphere generation: no effect

## CNCCCC12CCC(c3ccccc31)c1ccccc12 [maprotiline]
Hippocampal precursors [4]
  neurosphere frequency: significant increase
Hippocampal precursors [4]; slices treated at 1 μM
  neurosphere frequency as percentage of the control: 258.5±25.5%

## NC[C@H](O)c1ccc(O)c(O)c1 [norepinephrine, L-(−)-noradrenaline (+)-bitartrate salt monohydrate]
Hes5-GFP-positive cells; 10 μM, GFP-positive population
  very large neurospheres (>200 μm in diameter): 7.3±0.8 neurospheres per hippocampus
Hes5-GFP-positive cells; Hes5-GFP-positive cells plated at clonal density
  increase in neurosphere numbers: 215.4±23.5%
Hes5-GFP-positive cells; n=2 experiments, SR59230A 10 nM
  number of neurospheres from purified Hes5-GFP-positive precursor population: 45.5±2.5 neurospheres
[1]; 100 nM and 1 μM
  neurosphere numbers compared to the control: significant increase
[1]; 10 μM
  size of neurospheres: larger than the control neurospheres
[1]; norepinephrine with or without SR59230A 10 nM
  very large neurospheres generated: 12±2.08 neurospheres
Hippocampal precursors [4]; slices treated at 100 μM
  increase in neurosphere frequency / precursor activity: 3.5 fold
Hippocampal neurospheres; all large neurospheres examined, n=9
  neurons per stimulated large neurosphere: > 50 neurons
Hippocampal neurospheres; stimulated neurospheres
  neurospheres containing MBP-positive oligodendrocytes: One third
Hippocampal neurospheres; stimulated neurospheres examined
  neurospheres containing βIII tubulin-positive neurons: 62 out of 82
[5]
  proportion of stimulated large neurospheres (>200 μm) that could be passaged over 10 times: 71.4%

## COc1cc2nc(N3CCN(C(=O)c4ccco4)CC3)nc(N)c2cc1OC [prazosin]
[1]
  effect of antagonist on norepinephrine-stimulated increase in neurosphere numbers: failed to inhibit

## CC(C)NCC(O)COc1cccc2ccccc12 (stereo not shown) [propranolol]
[1]
  neurosphere numbers with antagonist alone: no toxic effect
  effect of antagonist on norepinephrine-stimulated increase in neurosphere numbers: reduced the norepinephrine-mediated response back to control levels; also recorded: completely inhibited
Hippocampal precursors [4]; propranolol 10 μM in presence of norepinephrine
  effect on norepinephrine-mediated increase in precursor activity: completely inhibit; also recorded: abolished
Hippocampal precursors [4]; propranolol 10 μM in presence of reboxetine
  effect on reboxetine-mediated increase in precursor activity: completely inhibit; also recorded: abolished

## CCOc1ccccc1OC(c1ccccc1)C1CNCCO1 (stereo not shown) [reboxetine]
Hippocampal precursors [4]; 10 μM and 100 μM
  frequency of neurosphere formation: significantly enhanced
Hippocampal precursors [4]; slices treated at 1 μM
  neurosphere frequency as percentage of the control: 104.5±9.6%
Hippocampal precursors [4]; slices treated at 10 μM
  increase in frequency of neurosphere formation: 40%
Hippocampal precursors [4]; slices treated at 100 μM
  neurosphere frequency as percentage of the control: 265.0±11.7%

## Cl.NCCc1c[nH]c2ccc(O)cc12 [serotonin, 5-hydroxytryptamine hydrochloride]
[1]; 100 nM, 1 μM or 10 μM, EGF and bFGF present
  neurosphere numbers compared to the control: no change
Hippocampal precursors [4]; 10 μM or 100 μM
  effect on frequency of neurosphere formation: no effect
Hippocampal precursors [4]; slices treated at 10 μM
  neurosphere frequency as percentage of the control: 90.07±5.4%
Hippocampal precursors [4]; slices treated at 100 μM
  neurosphere frequency as percentage of the control: 102.81±31.7%

## COC(=O)[C@@H]1[C@H]2C[C@H]3c4[nH]c5ccccc5c4CCN3C[C@@H]2CC[C@@H]1O [yohimbine]
[1]
  neurosphere numbers with antagonist alone: slight but significant increase
  increase in neurosphere numbers compared to the control: 40%
  effect of antagonist on norepinephrine-stimulated increase in neurosphere numbers: failed to inhibit
